# Experimental data reported in US20220117958A1, “COMPOSITIONS AND METHODS FOR INHIBITING ACSS2” (THE TRUSTEES OF THE UNIVERSITY OF PENNSYLVANIA, priority 2018, published 2022).
# Several values for one entry are separate records, joined by “and”; a condition that tells them apart may be missing. Identical values can stand only once. Like-named read-outs stand apart in the source and are kept apart here. Marks after values point to notes of the source that are not given here.
# What was measured:
# [1] = Microsomal stability assay (half-life), mouse; assay type: in vitro ADME; conditions: Mouse (CD1) microsomes, read-out: Microsomal stability T1/2
# Source text: (§1) Table 20 provides results of in vitro and in vivo pharmacokinetics performed for each of the represented compounds.
# [2] = Microsomal stability assay (half-life), rat; assay type: in vitro ADME; conditions: Rat (SD) microsomes, read-out: Microsomal stability T1/2
# Source text: as §1
# [3] = In vivo PK, IV dose, plasma; parameters: species or system Rat (SD); conditions: for Plasma concentration, mean / Plasma concentration, individual animal: IV 1 mg/kg
# Source text: as §1
# (§2) Tables 4 and 5 depict the summary of rat plasma sample concentrations after administration of ADG I-204. FIG. 6 provides a summary of rat plasma and brain concentrations.
# [4] = In vivo PK, oral gavage, plasma; parameters: species or system Rat (SD); conditions: for Plasma concentration, mean: Rat (SD), BQL = below quantitation limit (1.00 ng/mL); for Plasma concentration, mean / Plasma concentration, individual animal: PO 5 mg/kg
# Source text: as §1, §2
# [5] = Turbidity-based aqueous solubility; assay type: physicochemical; conditions: aqueous solution (composition not given), kinetic from dmso stock, read-out: highest soluble concentration
# Source text: as §1
# [6] = In vivo PK, IV dose, Terminal - brain (brain availability); parameters: species or system Rat (SD); conditions: for Brain concentration, mean / Brain concentration, individual animal: IV 1 mg/kg
# Protocol: Table 3 and FIG. 5 depict the brain availability of ADG I-204, ADG I-205, ADG I-206, and ADG I-207 after IV administration of 1 mg/kg dose.
# [7] = Microsomal stability assay (half-life), human; assay type: in vitro ADME; conditions: Human microsomes, read-out: Microsomal stability T1/2
# Source text: as §1
# H3K9ac = assay: Western blot, differentiated CAD cell lysates, H3K9ac levels; assay type: cell-based; conditions: differentiated CAD cells, DMSO = 100.00%
# Source text: as §1
# [8] = In vivo PK, oral gavage, plasma; parameters: species or system Rat (SD); conditions: Rat, PO 5 mg/kg, 24.0 hr; BQL limit 1.00 ng/mL; listed as AUG I-207, 5 mg/kg
# [9] = Protein binding via Rapid Equilibrium Dialysis - plasma; assay type: in vitro ADME; conditions: Rat (SD) plasma, 2 μM
# Source text: as §1
compound,measurement,setting,value
"O=C(Nc1ccc2nc(-c3cccs3)c(-c3cccs3)nc2c1)NC12CC3CC(CC(C3)C1)C2 [ADG-207, 1-((1S,3s)-adamantan-1-yl)-3-(2,3-di(thiophen-2-yl)quinoxalin-6-yl)urea]",half-life at 2 μM,[1],5.5 min
same,half-life at 2 μM,[2],5.5 min
same,"Plasma concentration, mean","[3]; Rat (SD), 0.083 hr, terminal, listed as ADG I-207, 1 mg/kg",1660*** ng/mL
same,"Plasma concentration, mean","[3]; Rat (SD), 1 hr, terminal, listed as ADG I-207, 1 mg/kg",55 ng/mL
same,"Plasma concentration, mean","[3]; Rat (SD), 4 hr, terminal, listed as ADG I-207, 1 mg/kg",1 ng/mL
same,"Plasma concentration, mean","[3]; Rat (SD), 8 hr, terminal, listed as ADG I-207, 1 mg/kg",1 ng/mL
same,"Plasma concentration, mean","[3]; Rat (SD), 24 hr, terminal, BQL limit 1.00 ng/mL (ADG I-205: 2.00 ng/mL)",BQL
same,"Plasma concentration, individual animal","[3]; Rat, 0.0830 hr, terminal, third animal received only 70% of the test article, listed as ADG I-207, 1 mg/kg",1640 ng/mL and 2230 ng/mL and 1110 ng/mL
same,"Plasma concentration, individual animal","[3]; Rat, 0.500 hr, not terminal (animals 4, 5 and 6), listed as ADG I-207, 1 mg/kg",1560** ng/mL and 93.3 ng/mL and 170 ng/mL
same,"Plasma concentration, individual animal","[3]; Rat, 1.00 hr, terminal, listed as ADG I-207, 1 mg/kg",70.3 ng/mL and 27.3 ng/mL and 65.8 ng/mL
same,"Plasma concentration, individual animal","[3]; Rat, 4.00 hr, terminal, BQL limit 1.00 ng/mL (ADG I-205: 2.00 ng/mL), listed as ADG I-207, 1 mg/kg",BQL
same,"Plasma concentration, individual animal","[3]; Rat, 8.00 hr, terminal, BQL limit 1.00 ng/mL (ADG I-205: 2.00 ng/mL), listed as ADG I-207, 1 mg/kg",BQL and 1.09 ng/mL
same,"Plasma concentration, individual animal","[3]; Rat, 24.0 hr, terminal, BQL limit 1.00 ng/mL (ADG I-205: 2.00 ng/mL)",BQL
same,concentration at 0.083 h,"[3]; SD, rat, plasma, iv, 1 mg/kg, Rat (SD), 0.083 hr, terminal, read-out: Plasma concentration, mean",1660 ng/mL
same,concentration at 0.5 h,"[3]; SD, rat, plasma, iv, 1 mg/kg, Rat (SD), 0.500 hr, not a terminal time point (animals 4, 5 and 6)",608 ng/mL
same,concentration at 1 h,"[3]; SD, rat, plasma, iv, 1 mg/kg, Rat (SD), 1 hr, terminal, read-out: Plasma concentration, mean",54.5 ng/mL
same,concentration at 4 h,"[3]; SD, rat, plasma, iv, 1 mg/kg, Rat (SD), 4 hr, terminal, read-out: Plasma concentration, mean",1.37 ng/mL
same,concentration at 8 h,"[3]; SD, rat, plasma, iv, 1 mg/kg, Rat (SD), 8 hr, terminal, read-out: Plasma concentration, mean",1.05 ng/mL
same,concentration at 4 h,"[3]; SD, rat, plasma, iv, 1 mg/kg, Rat, 4.00 hr, terminal, BQL limit 1.00 ng/mL (ADG I-205: 2.00 ng/mL), read-out: Plasma concentration, individual animal",1.37 ng/mL
same,concentration at 8 h,"[3]; SD, rat, plasma, iv, 1 mg/kg, Rat, 8.00 hr, terminal, BQL limit 1.00 ng/mL (ADG I-205: 2.00 ng/mL), read-out: Plasma concentration, individual animal",1 ng/mL
same,"Plasma concentration, mean",[4]; 0.25 hr,BQL
same,"Plasma concentration, mean",[4]; 0.5 hr,BQL
same,"Plasma concentration, mean",[4]; 1 hr,BQL
same,"Plasma concentration, mean",[4]; 4 hr,BQL
same,"Plasma concentration, mean",[4]; 8 hr,BQL
same,"Plasma concentration, mean",[4]; 24 hr,BQL
same,"Plasma concentration, individual animal","[4]; Rat, 0.250 hr, BQL limit 1.00 ng/mL",BQL
same,"Plasma concentration, individual animal","[4]; Rat, 0.500 hr, BQL limit 1.00 ng/mL",BQL
same,"Plasma concentration, individual animal","[4]; Rat, 1.00 hr, BQL limit 1.00 ng/mL",BQL
same,"Plasma concentration, individual animal","[4]; Rat, 4.00 hr, BQL limit 1.00 ng/mL",BQL
same,"Plasma concentration, individual animal","[4]; Rat, 8.00 hr, BQL limit 1.00 ng/mL",BQL
same,concentration at 24 h,"[4]; SD, rat, plasma, po, 5 mg/kg, Rat, 24.0 hr, BQL limit 1.00 ng/mL, read-out: Plasma concentration, individual animal",1.18 ng/mL
same,solubility,[5],5 µM
same,"Brain concentration, mean","[6]; Rat (SD), 1 hr, listed as ADG I-207, 1 mg/kg",51 ng/g
same,"Brain concentration, mean","[6]; Rat (SD), 4 hr, BQL limit 10.0 ng/g (204, 206), 20.0 ng/g (205, 207)",BQL
same,"Brain concentration, mean","[6]; Rat (SD), 8 hr, BQL limit 10.0 ng/g (204, 206), 20.0 ng/g (205, 207)",BQL
same,"Brain concentration, mean","[6]; Rat (SD), 24 hr, BQL limit 10.0 ng/g (204, 206), 20.0 ng/g (205, 207)",BQL
same,"Brain concentration, individual animal","[6]; Rat, 0.0830 hr, third animal received only 70% of the test article, listed as ADG I-207, 1 mg/kg",204 ng/g and 253 ng/g and 119*** ng/g
same,"Brain concentration, individual animal","[6]; Rat, 1.00 hr, listed as ADG I-207, 1 mg/kg",39.8 ng/g and 58.9 ng/g
same,"Brain concentration, individual animal","[6]; Rat, 4.00 hr, BQL limit 10.0 ng/g (204, 206), 20.0 ng/g (205, 207)",BQL
same,"Brain concentration, individual animal","[6]; Rat, 8.00 hr, BQL limit 10.0 ng/g (204, 206), 20.0 ng/g (205, 207)",BQL
same,"Brain concentration, individual animal","[6]; Rat, 24.0 hr, BQL limit 10.0 ng/g (204, 206), 20.0 ng/g (205, 207)",BQL
same,concentration at 0.083 h,"[6]; SD, rat, brain, iv, 1 mg/kg, Rat (SD), 0.083 hr",192 ng/g
same,concentration at 1 h,"[6]; SD, rat, brain, iv, 1 mg/kg, Rat (SD), 1 hr, read-out: Brain concentration, mean",50.8 ng/g
same,concentration at 1 h,"[6]; SD, rat, brain, iv, 1 mg/kg, Rat, 1.00 hr, read-out: Brain concentration, individual animal",53.6 ng/g
same,half-life at 2 μM,[7],18.7 min
same,H3K9ac levels normalized to H3 and DMSO control,H3K9ac; 1 uM,57.45%
same,H3K9ac levels normalized to H3 and DMSO control,H3K9ac; 5 uM,63.69%
same,H3K9ac levels normalized to H3 and DMSO control,H3K9ac; 10 uM,72.97%
same,H3K9ac levels normalized to H3 and DMSO control,H3K9ac; 20 uM,70.92%
same,H3K9ac levels normalized to H3 and DMSO control,H3K9ac; 50 uM,116.85%
same,H3K9ac levels normalized to H3 and DMSO control,H3K9ac; 100 uM,107.80%
same,"Plasma concentration, individual animal",[8],BQL
same,"Protein binding, plasma: % Protein free",[9],0.9428 % Protein free
